18 compounds from patent publication US20220267277A1, “DOPAMINE RECEPTOR D1 AGONISTS AND METHODS OF USE” (Sanford Burnham Prebys Medical Discovery Institute, priority 2019, published 2022) can be followed below.

Where two headings read alike, the source gives them in different places.

The test system of one test is YAP/TAZ. Put plainly: Inhibition of YAP/TAZ (Example B-1, Table 4). The test is classed as cell-based. From the text:
(§1) Example B-1: Enzyme Assay of Inhibition of YAP/TAZ and DR1

In the next test the target is T1, DR1 (Homo sapiens, UniProt P21728).
T1 construct: endogenous in cells; host or cells: IPF patient derived fibroblasts
T1 sequence (P21728 whole entry): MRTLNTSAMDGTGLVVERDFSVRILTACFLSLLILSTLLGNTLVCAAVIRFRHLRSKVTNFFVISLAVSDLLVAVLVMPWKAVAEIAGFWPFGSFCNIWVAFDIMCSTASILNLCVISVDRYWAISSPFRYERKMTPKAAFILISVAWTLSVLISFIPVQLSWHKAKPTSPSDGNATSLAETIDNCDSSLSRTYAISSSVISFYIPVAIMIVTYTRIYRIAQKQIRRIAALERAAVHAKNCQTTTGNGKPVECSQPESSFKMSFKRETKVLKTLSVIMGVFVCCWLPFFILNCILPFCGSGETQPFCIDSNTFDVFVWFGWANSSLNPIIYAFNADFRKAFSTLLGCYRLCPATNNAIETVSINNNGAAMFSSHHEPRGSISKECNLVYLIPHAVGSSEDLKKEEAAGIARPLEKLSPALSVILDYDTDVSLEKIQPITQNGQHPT
Put plainly: DR1 agonism EC50 (Example B-1, Table 4). It is filed as cell-based. As for the experimental part: cAMP Assay: IPF patient derived fibroblasts are plated in EMEM containing 10% FBS overnight. […] Twenty minutes prior to cell lysis the media is removed and cells are treated with “induction buffer” containing nonselective phosphodiesterase inhibitors and the indicated concentration of compound(s). Luminescence is measured on a Flexstation 3 (Molecular Devices) plate reader.
as §1

Test [1] relates to YAP/TAZ nuclear localization in human lung fibroblasts. Put plainly: YAP/TAZ nuclear localization in human lung fibroblasts (FIG. 1).
For another test, the system named is Col1a1. The settings on record: 10 μM; precision cut lung slices cultured for 3 days; aged mice (24 months) injured with bleomycin.

The IC50 is the concentration at which inhibition is half-maximal. Usually EC50 stands for the midpoint of the concentration-response curve. In the test on YAP/TAZ, `CCCc1csc2c1C(c1ccc(O)c(O)c1)CNC2` (centres unmarked) [4-(3-propyl-4,5,6,7-tetrahydrothieno[2,3-c]pyridin-4-yl)benzene-1,2-diol] returned an IC50 of 1000 to 20000 nM. In addition, on DR1 (read-out: DR1 EC50), the EC50 fell in the range of 1000 to 20000 nM. Regarding `Oc1ccc(C2CNCc3cnccc32)cc1O` (centres unmarked) [4-(1,2,3,4-tetrahydro-2,7-naphthyridin-4-yl)benzene-1,2-diol], the IC50 in the test on YAP/TAZ was in the range of 1000 to 20000 nM.

In the test on YAP/TAZ, `Oc1ccc([C@H]2CNCc3sccc32)cc1O` [(R)-4-(4,5,6,7-tetrahydrothieno[2,3-c]pyridin-4-yl)benzene-1,2-diol] came in with an IC50 of 1000 to 20000 nM. Also, the EC50 on DR1 (read-out: DR1 EC50) was less than 1000 nM.

`Oc1ccc2c(c1)[C@@H]1c3cc(O)c(O)cc3CC[C@H]1NC2` [(6aR,12bS)-5,6,6a,7,8,12b-hexahydrobenzo[a]phenanthridine-2,10,11-triol] gave an IC50 in the test on YAP/TAZ of 1000 to 20000 nM. Besides, the EC50 at DR1 was less than 1000 nM. “(6aR,12bS)-10,11-dimethoxy-2-methyl-5,6,6a,7,8,12b-hexahydrobenzo[a]phenanthridin-3-ol [Compound 4a]”: the “inhibition of YAP/TAZ nuclear localization” value in test [1] is “inhibit YAP/TAZ nuclear localization”. In the case of `COc1c(O)cc(C2CNCc3sccc32)cc1Cl` (centres unmarked) [3-chloro-2-methoxy-5-(4,5,6,7-tetrahydrothieno[2,3-c]pyridin-4-yl)phenol], the IC50 in the test with YAP/TAZ was in the range of 1000 to 20000 nM. The EC50 on DR1 (read-out: DR1 EC50) lay in the range of 1000 to 20000 nM. Turning to `COc1ccc(C2CNCc3sccc32)cc1OC` (centres unmarked) [4-(3,4-dimethoxyphenyl)-4,5,6,7-tetrahydrothieno[2,3-c]pyridine], the IC50 in the test on YAP/TAZ fell in the range of 1000 to 20000 nM. Also, the EC50 on DR1 (read-out: DR1 EC50) was in the range of 1000 to 20000 nM. In the case of `Cc1cc2c(cc1O)CN[C@H]1CCc3cc(O)c(O)cc3[C@H]21` (relative stereo) [Compound 3, Trans-(6a,12b)-2-methyl-5,6,6a,7,8,12b-hexahydro-benzo[a]phenanthridine-3,10,11-triol], in test [1], the “inhibition of YAP/TAZ nuclear localization” value is recorded as “inhibit YAP/TAZ nuclear localization”. Further, in the test on Col1a1, the “expression of Col1a1” value was “inhibits expression of Col1a1”. The compound `COc1cc(C2CNCc3sccc32)cc(Cl)c1OC` (centres unmarked) [4-(3-chloro-4,5-dimethoxyphenyl)-4,5,6,7-tetrahydrothieno[2,3-c]pyridine] had a half-inhibitory concentration (IC50) in the test on YAP/TAZ of 1000 to 20000 nM. The EC50 on DR1 (read-out: DR1 EC50) lay in the range of 1000 to 20000 nM. For the compound `CCCc1csc2c1[C@H](c1ccc(O)c(O)c1)CNC2` [(S)-4-(3-propyl-4,5,6,7-tetrahydrothieno[2,3-c]pyridin-4-yl)benzene-1,2-diol], the IC50 in the test with YAP/TAZ lay in the range of 1000 to 20000 nM. For the same compound, the EC50 on DR1 (read-out: DR1 EC50) lay within 1000 to 20000 nM. Consider `Oc1cc2c(cc1O)[C@@H]1c3ccc(O)c(O)c3CN[C@@H]1CC2` [(6aR,12bR)-5,6,6a,7,8,12b-hexahydrobenzo[a]phenanthridine-3,4,10,11-tetraol], for which the IC50 in the test with YAP/TAZ lay in the range of 1000 to 20000 nM.

Turning to `Oc1ccc([C@@H]2CNCc3sccc32)cc1O` [(S)-4-(4,5,6,7-tetrahydrothieno[2,3-c]pyridin-4-yl)benzene-1,2-diol], the IC50 in the test with YAP/TAZ was in the range of 1000 to 20000 nM. For the same compound, the EC50 on DR1 (read-out: DR1 EC50) is less than 1000 nM. Consider `Oc1cc2c(cc1O)[C@H]1c3ccc(O)c(O)c3CN[C@@H]1CC2` [(6aR,12bS)-5,6,6a,7,8,12b-hexahydrobenzo[a]phenanthridine-3,4,10,11-tetraol], for which the IC50 with YAP/TAZ fell in the range of 1000 to 20000 nM. Turning to `Cc1cc2c(cc1O)CN[C@H]1CCc3cc(O)c(O)cc3[C@H]21` [(6aS,12bR)-2-methyl-5,6,6a,7,8,12b-hexahydrobenzo[a]phenanthridine-3,10,11-triol], in the test with YAP/TAZ, the IC50 lay within 1000 to 20000 nM. For the same compound, the EC50 at DR1 was less than 1000 nM.

Compound `CN1Cc2sccc2C(c2ccc(O)c(O)c2)C1` (centres unmarked) [4-(6-methyl-4,5,6,7-tetrahydrothieno[2,3-c]pyridin-4-yl)benzene-1,2-diol] returned an IC50 in the test with YAP/TAZ of 1000 to 20000 nM. Further, the EC50 on DR1 (read-out: DR1 EC50) is 1000 to 20000 nM. Consider `CCCc1csc2c1[C@@H](c1ccc(O)c(O)c1)CNC2` [(R)-4-(3-propyl-4,5,6,7-tetrahydrothieno[2,3-c]pyridin-4-yl)benzene-1,2-diol], for which the IC50 with YAP/TAZ lay in the range of 1000 to 20000 nM. At DR1 (read-out: DR1 EC50), the EC50 was 1000 to 20000 nM. For the compound `CCCc1csc2c1C(c1ccc(OC)c(OC)c1)CNC2` (centres unmarked) [4-(3,4-dimethoxyphenyl)-3-propyl-4,5,6,7-tetrahydrothieno[2,3-c]pyridine], the IC50 with YAP/TAZ is 1000 to 20000 nM. Moreover, on DR1 (read-out: DR1 EC50), the 50% effective concentration (EC50) was in the range of 1000 to 20000 nM. Compound `Oc1cc(C2CNCc3sccc32)cc(Cl)c1O` (centres unmarked) [3-chloro-5-(4,5,6,7-tetrahydrothieno[2,3-c]pyridin-4-yl)benzene-1,2-diol] had an IC50 with YAP/TAZ of 1000 to 20000 nM. Moreover, at DR1 (read-out: DR1 EC50), the concentration for a half-maximal effect (EC50) is less than 1000 nM.
